The target of assay [1] is T1, human recombinant ALDH1A1 (Homo sapiens, UniProt P00352).
T1 construct: purchased bio-techne
T1 sequence (P00352 1-501): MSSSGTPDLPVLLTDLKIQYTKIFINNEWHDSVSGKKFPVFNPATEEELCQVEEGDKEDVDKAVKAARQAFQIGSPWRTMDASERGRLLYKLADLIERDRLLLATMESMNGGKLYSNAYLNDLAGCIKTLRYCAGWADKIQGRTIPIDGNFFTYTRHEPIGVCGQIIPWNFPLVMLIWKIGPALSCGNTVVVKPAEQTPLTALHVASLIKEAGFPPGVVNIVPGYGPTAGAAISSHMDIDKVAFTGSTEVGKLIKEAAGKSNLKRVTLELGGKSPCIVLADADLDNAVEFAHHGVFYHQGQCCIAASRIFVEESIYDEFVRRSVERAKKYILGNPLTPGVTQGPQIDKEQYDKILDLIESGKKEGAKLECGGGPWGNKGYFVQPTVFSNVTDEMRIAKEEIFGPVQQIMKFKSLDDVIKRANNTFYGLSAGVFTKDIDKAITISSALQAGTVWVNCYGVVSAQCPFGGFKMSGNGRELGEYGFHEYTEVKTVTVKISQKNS
The assay is described as follows: ALDH activity colorimetric assay (Biovision), ALDH1A1. It is filed as biochemical. The conditions noted are these: Table 1, class symbols. As to the method: ALDH substrate kinetics were measured using an ALDH activity colorimetric assay kit (Biovision) according to the manufacturer's instructions. 1 μg/well human recombinant ALDH1A1 (bio-techne), ALDH2 (abcam), or ALDH3A1 (ATGen Co., Ltd) were used. The assay was initiated by the addition of enzyme after all reagents were pre-warmed to 37° C. Plates were read in kinetic mode on a Multiskan FC plate reader (Thermo Scientific) at 450 nm over 40 min at 37° C.
The in vitro potency of the cold, non-radioactive reference compound compared against two different ALDH isoforms, ALDH1A1 and ALDH2 (using the ALDH activity colorimetric assay Kit (Biovision)).
Other reference compounds (PQM-C) were compared against ALDH1A1 (using the ALDH activity colorimetric assay Kit (Biovision)).

For assay [2], the system named is SKOV3-TRip2 and SKOV3-ip1 cells. The experiment in a line: Cell uptake of radiotracer, drug-resistant vs drug-sensitive SKOV3 cells. It is filed as cell-based, human. On the procedure: (§1) For cell uptake studies SKOV3-ip1 and SKOV3-TRip2, A549-WT, A549-KO-ALDH1A1, HEK293-WT and HEK293-ALDH1A1 cells were plated in 6 well plates 24 h prior to the studies, as described above (Western Blotting). One mL of fresh media containing 0.37 MBq of PQM-H-001 and 6 KBq PQM-H-002 was added to each well for the desired incubation time. At 40 min, plates were placed on ice, washed three times with ice-cold PBS to remove exogenous radioactivity and lysed in RIPA buffer ([…]; Fisher Scientific Ltd).
(§2) For all cell uptake and efflux study decay-corrected radioactivity in lysates was determined on a gamma counter ([…]; Wallac 1282 CompuGamma counter), with the remaining cell lysate centrifuged (21,000×g for 10 min at 4° C.) and the supernatant used to determine protein concentration following radioactive decay using a Pierce BCA assay. To quantify radiotracer uptake in cells, three standard solutions of the radioactivity-containing medium were counted on the gamma counter. Data were expressed as a percentage of total radioactivity administered to cells per mg of protein.
Next, the time-dependent uptake of the of the radiotracers PQM-H-001 ([^18F]PQM-H-001) and PQM-H-002 ([^125I]PQM-H-002) was profiled in drug-resistant SKOV3-Trip2 and drug-sensitive SKOV3-ip1 cell lines (Pereira, R., et al. 2019).

For assay [3], the system named is A549-WT and A549-KO-ALDH1A1 human lung cancer cells. The assay is described as follows: Cell uptake of radiotracer, A549-WT vs A549-KO-ALDH1A1. It is filed as cell-based. The conditions noted are these: ALDH1A1 positive vs ALDH1A1 negative cell line. As to the method:
A549-KO-ALDH1A1 cells were obtained using an ALDH1A1 human gene knockout kit (Cat #KN400723) according to manufacturer's instructions (Origene, Rockville, MD, USA). Briefly, 3×10^5 A549 cells were seeded into a 6-well plate and maintained for 24 hours at 37° C., 5% CO2. Lipofectamine 3000 (Cat #L^3000, Invitrogen) was mixed with 1 μg of gRNA vector (pCas-guide) and 1 μg of donor template in Opti-MEM and added to cells for 16 hours. The next day, the transfection medium was removed and replaced with fresh medium. Forty-eight hours post-transfection, medium was replaced with fresh medium containing 0.5 μg/mL of puromycin (Cat #A1113803) which caused 100% cell death in non-transfected control cells after 5 days. Cells resistant to puromycin were subjected to clonal selection by the limiting dilution method. Knockout of protein was confirmed by western blots.
as §1, §2
The following compounds were profiled in A549-WT (positive ALDH1A1) and A549-KO-ALDH1A1 (negative for ALDH1A1) human lung cancer cells as well as HEK293-WT (negative for ALDH1A1) and HEK293-ALDH1A1 (positive for ALDH1A1) human embryonic kidney cells. The fold difference in radiotracer retention for the ALDH1A1 positive cell lines as compared to the ALDH1A1 negative cell lines for each compound is shown in Table 2.

Assay [4] concerns HEK293-ALDH1A1 and HEK293-WT human embryonic kidney cells. The assay is described as follows: Cell uptake of radiotracer, HEK293-ALDH1A1 vs HEK293-WT. It is filed as cell-based. The conditions noted are these: ALDH1A1 positive vs ALDH1A1 negative cell line. On the procedure: HEK293 stably overexpressing ALDH1A1 were obtained by infecting cells with lentiviral particles containing the nucleotide sequences encoding for human ALDH1A1 (Origene RC200723L^4V LentiORF particles (mGFP-tagged)). Briefly, 1×10^4 HEK-293 cells were seeded into a 24-well plate and maintained for 24 hours at 37° C., 5% CO2. Cells were then infected with the lentiviral particles using a multiplicity of infection (MOI) of 10 in the presence of hexadimethrine bromide (6 μg/mL) (Sigma-Aldrich, St. Louis, MO, USA). The next day, medium was removed and replaced with fresh medium. At 36 h post-infection, medium was replaced with complete culture medium containing puromycin (1 μg/ml) which caused 100% cell death in non-transduced control cells after 5 days. Cells resistant to puromycin were subjected to clonal selection by the limiting dilution method. Overexpression of ALDH1A1 was confirmed by western blots and real-time PCR.
as §1
For all cell uptake and efflux study decay-corrected radioactivity in lysates was determined on a gamma counter ([…]; Wallac 1282 CompuGamma counter), with the remaining cell lysate centrifuged (21,000×g for 10 min at 4° C.) and the supernatant used to determine protein concentration following radioactive decay using a Pierce BCA assay. To quantify radiotracer uptake in cells, three standard solutions of the radioactivity-containing medium were counted on the gamma counter. Data were expressed as a percentage of total radioactivity administered to cells per mg of protein. […]

The term IC50 denotes the concentration that gives 50% inhibition.

On to `CS(=O)(=O)N1CCN(C(=O)c2cnc3c([N+](=O)[O-])cc(F)cc3c2-c2ccc(C3(C#N)CC3)cc2)CC1` [PQM-C-006, 1-(4-(6-Fluoro-3-(4-(methylsulfonyl)piperazine-1-carbonyl)-8-nitroquinolin-4-yl)phenyl)cyclopropane-1-carbonitrile], for which the IC50 in assay [1] fell in the range of 10 to 100 nM.

Consider `CS(=O)(=O)N1CCN(C(=O)c2cnc3c([N+](=O)[O-])cc(I)cc3c2-c2ccc(C3(C#N)CC3)cc2)CC1` [PQM-C-007, 1-(4-(6-Iodo-3-(4-(methylsulfonyl)piperazine-1-carbonyl)-8-nitroquinolin-4-yl)phenyl)cyclopropane-1-carbonitrile], for which the IC50 in assay [1] lay within 10 to 100 nM.

Turning to `CS(=O)(=O)N1CCN(C(=O)c2cnc3cc(F)ccc3c2-c2ccc(C3(C#N)CC3)cc2)CC1` [PQM-C-011, 1-(4-(7-Fluoro-3-(4-(methylsulfonyl)piperazine-1-carbonyl)quinolin-4-yl)phenyl)cyclopropane-1-carbonitrile], the IC50 in assay [1] is 10 to 100 nM.

Take `CS(=O)(=O)N1CCN(C(=O)c2cnc3cc(I)ccc3c2-c2ccc(C3(C#N)CC3)cc2)CC1` [PQM-C-012, 1-(4-(7-Iodo-3-(4-(methylsulfonyl)piperazine-1-carbonyl)quinolin-4-yl)phenyl)cyclopropane-1-carbonitrile]: the IC50 in assay [1] lay in the range of 10 to 100 nM.

Consider `CS(=O)(=O)N1CCN(C(=O)c2cnc3c(F)cccc3c2-c2ccc(C3(C#N)CC3)cc2)CC1` [PQM-C-016, 1-(4-(8-Fluoro-3-(4-(methylsulfonyl)piperazine-1-carbonyl)quinolin-4-yl)phenyl)cyclopropane-1-carbonitrile], for which the 50% inhibitory concentration (IC50) in assay [1] lay in the range of 10 to 100 nM.

`CS(=O)(=O)N1CCN(C(=O)c2cnc3c(I)cccc3c2-c2ccc(C3(C#N)CC3)cc2)CC1` [PQM-C-017, 1-(4-(8-Iodo-3-(4-(methylsulfonyl)piperazine-1-carbonyl)quinolin-4-yl)phenyl)cyclopropane-1-carbonitrile]: in assay [1], the IC50 lay within 10 to 100 nM.

With `CS(=O)(=O)N1CCN(C(=O)c2cnc3ccccc3c2-c2ccc(C3(C#N)CC3)c(F)c2)CC1` [PQM-C-021], in assay [1], the IC50 was at most 10 nM.

For `CS(=O)(=O)N1CCN(C(=O)c2cnc3ccccc3c2-c2ccc(C3(C#N)CC3)c(I)c2)CC1` [PQM-C-022, 1-(2-Iodo-4-(3-(4-(methylsulfonyl)piperazine-1-carbonyl)quinolin-4-yl)phenyl)cyclopropane-1-carbonitrile], in assay [1], the IC50 was in the range of 1000 to 10000 nM.

Turning to `CS(=O)(=O)N1CCN(C(=O)c2cnc3ccccc3c2N2CCC(C#N)(c3ccc(F)cc3)CC2)CC1` [PQM-C-026, 4-(4-fluorophenyl)-1-(3-(4-(methylsulfonyl)piperazine-1-carbonyl)quinolin-4-yl)piperidine-4-carbonitrile], the IC50 in assay [1] was at most 10 nM.

Take `CS(=O)(=O)N1CCN(C(=O)c2cnc3ccccc3c2N2CCC(C#N)(c3ccc(I)cc3)CC2)CC1` [PQM-C-027, 4-(4-iodophenyl)-1-(3-(4-(methylsulfonyl)piperazine-1-carbonyl)quinolin-4-yl)piperidine-4-carbonitrile]: the IC50 in assay [1] fell in the range of 100 to 1000 nM.

On to `CS(=O)(=O)N1CCN(C(=O)c2cnc3ccc([125I])cc3c2-c2ccc(C3(C#N)CC3)cc2)CC1` [PQM-H-002, 1-(4-(6-(iodo-^125I)-3-(4-(methylsulfonyl)piperazine-1-carbonyl)quinolin-4-yl)phenyl)cyclopropane-1-carbonitrile], for which the “Radiotracer retention, drug resistant versus drug-sensitive cells” value in assay [2] worked out at 200 times higher. The “fold difference in radiotracer retention, A549-WT vs A549-KO-ALDH1A1” value (“fold difference … vs A549-KO-ALDH1A1” below) in assay [3] is 40 fold. For the same compound, the “fold difference in radiotracer retention, HEK293-ALDH1A1 vs. HEK293-WT” value (shortened to “fold difference … HEK293-ALDH1A1 vs. HEK293-WT”) in assay [4] is 56 fold.

Consider `CS(=O)(=O)N1CCN(C(=O)c2cnc3c([N+](=O)[O-])cc([125I])cc3c2-c2ccc(C3(C#N)CC3)cc2)CC1` [PQM-H-007, 1-(4-(6-(iodo-^125I)-3-(4-(methylsulfonyl)piperazine-1-carbonyl)-8-nitroquinolin-4-yl)phenyl)cyclopropane-1-carbonitrile], for which the “fold difference … vs A549-KO-ALDH1A1” value in assay [3] is recorded as 17 fold. For the same compound, the “fold difference … HEK293-ALDH1A1 vs. HEK293-WT” value in assay [4] stood at 2 fold.

On to `CS(=O)(=O)N1CCN(C(=O)c2cnc3c([125I])cccc3c2-c2ccc(C3(C#N)CC3)cc2)CC1` [PQM-H-017, 1-(4-(8-(fluoro-^125I)-3-(4-(methylsulfonyl)piperazine-1-carbonyl)quinolin-4-yl)phenyl)cyclopropane-1-carbonitrile], for which the “fold difference … vs A549-KO-ALDH1A1” value in assay [3] is on record as 16 fold. Besides, in assay [4], the “fold difference … HEK293-ALDH1A1 vs. HEK293-WT” value came to 6 fold.

With `CS(=O)(=O)N1CCN(C(=O)c2cnc3ccccc3c2-c2ccc(C3(C#N)CC3)c([125I])c2)CC1` [PQM-H-022, 1-(2-(fluoro-^125I)-4-(3-(4-(methylsulfonyl)piperazine-1-carbonyl)quinolin-4-yl)phenyl)cyclopropane-1-carbonitrile], the “fold difference … vs A549-KO-ALDH1A1” value in assay [3] came out at 6 fold.

The values above are taken from patent US20260191999A1, “COMPOUNDS AND THEIR USE” (KING'S COLLEGE LONDON, priority 2022, published 2026).
